Laboratory results: patent EP4563146A1 (IRBM S.P.A., priority 2023, dated 2025)
Where two headings read alike, the source gives them in different places.

Experiments:
ZIKV replicon = assay: ZIKV replication inhibition assay (NanoLuc replicon in Vero cells); details: 72 h
[1] = target: T1, West Nile Virus (WNV) NS2B-NS3 protease (West Nile virus, UniProt Q9Q6P4); assay: WNV protease inhibition assay; format: biochemical; details: Table 4; letter codes for IC50
T1 construct: NS2B1423-1470); purchased R&D 2907-SE-020
T1 sequence (Q9Q6P4 1423-1470): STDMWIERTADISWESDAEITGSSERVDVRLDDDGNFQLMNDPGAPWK
T1 sequence (Q9Q6P4 1506-1689): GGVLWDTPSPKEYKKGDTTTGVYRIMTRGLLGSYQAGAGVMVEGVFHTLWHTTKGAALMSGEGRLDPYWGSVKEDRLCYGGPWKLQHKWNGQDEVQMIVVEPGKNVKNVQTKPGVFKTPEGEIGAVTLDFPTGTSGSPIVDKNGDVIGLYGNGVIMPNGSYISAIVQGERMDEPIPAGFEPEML
Description: WNV protease inhibition assay

[2] = Zika virus, Vero, read-out: ZIKA Cell_Nanoluc, Vero cells with stable ZIKV replicon, 72 h, Nano-Glo readout
[3] = Zika virus, Vero, read-out: ZIKA Cell_Nanoluc

Cc1ccccc1CC(=O)Nc1cc(NC(=O)[N-]c2c[n+]([C@@H]3CCC[C@H](CN(C)C)C3)no2)cc(C(F)(F)F)c1 (stereo in doubt) [Example 247, rac-(3-((1R,3S)-3-((Dimethylamino)methyl)-cyclohexyl)-1,2,3-oxadiazol-3-ium-5-yl)((3-(2-(o-tolyl)acetamido)-5-(trifluoromethyl)phenyl)-carbamoyl)amide]
EC50 (ZIKV replicon; [2]): 1000 to 20000 nM | IC50 [1]: 100 to 1000 nM

CNC(=O)c1ccc(NC(=O)[N-]c2c[n+](Cc3ccc(-c4c(C)ncnc4C)cc3)no2)cc1C(F)(F)F [Example 273, (3-(4-(4,6-Dimethylpyrimidin-5-yl)benzyl)-1,2,3-oxadiazol-3-ium-5-yl)((4-(methyl-carbamoyl)-3-(trifluoromethyl)phenyl)carbamoyl)amide]
EC50 (ZIKV replicon; [2]): 1000 to 20000 nM | IC50 [1]: 100 to 1000 nM

Cc1cccc(CC(=O)Nc2cc(NC(=O)[N-]c3c[n+]([C@H]4CC[C@H](CN(C)C)CC4)no3)cc(C(F)(F)F)c2)c1C [Example 212, (3-((1R,4R)-4-((Dimethylamino)methyl)-cyclohexyl)-1,2,3-oxadiazol-3-ium-5-yl)((3-(2-(2,3-dimethylphenyl)acetamido)-5-(trifluoromethyl)phenyl)carbamoyl)amide]
EC50 (ZIKV replicon; [3]): 1000 to 20000 nM | IC50 [1]: 100 to 1000 nM

Cc1ccccc1CC(=O)Nc1cc(NC(=O)[N-]c2c[n+]([C@@H]3CCC[C@H](C(=O)N(C)C)C3)no2)cc(C(F)(F)F)c1 (racemic) [Example 253, rac-(3-((1R,3S)-3-(Dimethylcarbamoyl)-cyclohexyl)-1,2,3-oxadiazol-3-ium-5-yl)((3-(2-(o-tolyl)-acetamido)-5-(trifluoromethyl)phenyl)-carbamoyl)amide]
EC50 (ZIKV replicon; [2]): 1000 to 20000 nM | IC50 [1]: 100 to 1000 nM

CN(C)C[C@H]1CC[C@H]([n+]2cc([N-]C(=O)Nc3cc(NC(=O)Cc4ccccc4O)cc(C(F)(F)F)c3)on2)CC1 [Example 191, (3-((1R,4R)-4-((Dimethylamino)methyl)-cyclohexyl)-1,2,3-oxadiazol-3-ium-5-yl)((3-(2-(2-hydroxyphenyl)acetamido)-5-(trifluoromethyl)-phenyl)carbamoyl)amide]
EC50 (ZIKV replicon; [3]): < 100 nM | IC50 [1]: 1000 to 20000 nM

COc1ncc(-c2ccc(C[n+]3cc([N-]C(=O)Nc4cc(NC(=O)Cc5ccccc5)cc(C(F)(F)F)c4)on3)cc2)c(C)n1 [Example 1, (3-(4-(2-Methoxy-4-methylpyrimidin-5-yl)benzyl)-1,2,3-oxadiazol-3-ium-5-yl)((3-(2-phenylacetamido)-5-(trifluoromethyl)phenyl)carbamoyl)amide]
EC50 (ZIKV replicon; [2]): 1000 to 20000 nM | IC50 [1]: 1000 to 20000 nM

Cc1ccccc1CC(=O)Nc1cc(NC(=O)[N-]c2c[n+]([C@@H]3CCCC[C@@H]3N(C)C)no2)cc(C(F)(F)F)c1 (racemic) [Example 244, rac-(3-((1R,2S)-2-(Dimethylamino)cyclohexyl)-1,2,3-oxadiazol-3-ium-5-yl)((3-(2-(o-tolyl)acetamido)-5-(trifluoromethyl)phenyl)-carbamoyl)amide]
EC50 (ZIKV replicon; [2]): 1000 to 20000 nM | IC50 [1]: 100 to 1000 nM

Cc1cn(C2COC2)nc1-c1ccc(C[n+]2cc([N-]C(=O)Nc3ccnc(C(F)(F)F)c3)on2)cc1 [Example 250, (3-(4-(4-Methyl-1-(oxetan-3-yl)-1H-pyrazol-3-yl)benzyl)-1,2,3-oxadiazol-3-ium-5-yl)((2-(trifluoromethyl)pyridin-4-yl)carbamoyl)amide]
EC50 (ZIKV replicon; [2]): 100 to 1000 nM | IC50 [1]: 100 to 1000 nM

Cc1nc(-c2ccc(C[n+]3cc([N-]C(=O)Nc4ccnc(C(F)(F)F)c4)on3)cc2)c(C)s1 [Example 259, (3-(4-(2,5-Dimethylthiazol-4-yl)benzyl)-1,2,3-oxadiazol-3-ium-5-yl)((2-(trifluoromethyl)pyridin-4-yl)carbamoyl)amide]
EC50 (ZIKV replicon; [2]): < 100 nM | IC50 [1]: 100 to 1000 nM

CN(C)C[C@H]1CC[C@H]([n+]2cc([N-]C(=O)Nc3cc(NC(=O)Cc4ccccc4Cl)cc(C(F)(F)F)c3)on2)CC1 [Example 168, ((3-(2-(2-Chlorophenyl)acetamido)-5-(trifluoromethyl)phenyl)carbamoyl)(3-((1R,4R)-4-((dimethylamino)methyl)cyclohexyl)-1,2,3-oxadiazol-3-ium-5-yl)amide]
EC50 (ZIKV replicon; [3]): 100 to 1000 nM | IC50 [1]: < 100 nM

Cc1ccccc1CC(=O)Nc1cc(NC(=O)[N-]c2c[n+]([C@@H]3CCC[C@H](C(N)=O)C3)no2)cc(C(F)(F)F)c1 [Example 255, (3-((1R,3S)-3-Carbamoylcyclohexyl)-1,2,3-oxadiazol-3-ium-5-yl)((3-(2-(o-tolyl)acetamido)-5-(trifluoromethyl)phenyl)carbamoyl)amide]
EC50 (ZIKV replicon; [2]): 1000 to 20000 nM | IC50 [1]: 100 to 1000 nM

(3-((1R,4R)-4-((Dimethylamino)methyl)-cyclohexyl)-1,2,3-oxadiazol-3-ium-5-yl)((3-(2-(3- methoxyphenyl)acetamido)-5-(trifluoromethyl)- phenyl)carbamoyl)amide [Example 152]
EC50 (ZIKV replicon; read-out: ZIKA Cell_Nanoluc, Vero cells with stable ZIKV replicon, Nano-Glo readout): 1000 to 20000 nM | IC50 [1]: 100 to 1000 nM

Cc1ccccc1CC(=O)Nc1cc(NC(=O)[N-]c2c[n+]([C@@H]3CCCC(CO)C3)no2)cc(C(F)(F)F)c1 (stereo partly drawn) [Example 230, (3-((1R)-3-(Hydroxymethyl)cyclohexyl)-1,2,3-oxadiazol-3-ium-5-yl)((3-(2-(o-tolyl)acetamido)-5-(trifluoromethyl)phenyl)carbamoyl)amide]
EC50 (ZIKV replicon; [2]): 1000 to 20000 nM | IC50 [1]: < 100 nM

O=C([N-]c1c[n+]([C@H]2CCC[C@@H](c3cncnc3)C2)no1)Nc1ccnc(C(F)(F)F)c1 [Example 220, (3-((1S,3R)-3-(Pyrimidin-5-yl)cyclohexyl)-1,2,3-oxadiazol-3-ium-5-yl)((2-(trifluoromethyl)-pyridin-4-yl)carbamoyl)amide]
EC50 (ZIKV replicon; [2]): 100 to 1000 nM | IC50 [1]: 100 to 1000 nM

Cc1ccccc1CC(=O)Nc1cc(NC(=O)[N-]c2c[n+]([C@H]3CC[C@H](C(=O)N(C)C)CC3)no2)cc(C(F)(F)F)c1 [Example 248, (3-((1R,4R)-4-(Dimethylcarbamoyl)-cyclohexyl)-1,2,3-oxadiazol-3-ium-5-yl)((3-(2-(o-tolyl)acetamido)-5-(trifluoromethyl)phenyl)-carbamoyl)amide]
EC50 (ZIKV replicon; [3]): 1000 to 20000 nM | IC50 [1]: < 100 nM

Cc1ncncc1-c1ccc(C[n+]2cc([N-]C(=O)Nc3ccnc(C(F)(F)F)c3)on2)cc1 [Example 225, (3-(4-(4-Methylpyrimidin-5-yl)benzyl)-1,2,3-oxadiazol-3-ium-5-yl)((2-(trifluoromethyl)pyridin-4-yl)carbamoyl)amide]
EC50 (ZIKV replicon; [2]): 100 to 1000 nM | IC50 [1]: 100 to 1000 nM

O=C([N-]c1c[n+](C[C@H]2CC[C@H](c3cncnc3)CC2)no1)Nc1cccc(C(F)(F)F)c1 [Example 186, (3-(((1R,4R)-4-(Pyrimidin-5-yl)cyclohexyl)methyl)-1,2,3-oxadiazol-3-ium-5-yl)((3-(trifluoromethyl)phenyl)carbamoyl)amide]
EC50 (ZIKV replicon; [3]): 1000 to 20000 nM | IC50 [1]: 100 to 1000 nM

CN(C)C[C@H]1CC[C@H]([n+]2cc([N-]C(=O)Nc3cc(NC(=O)C4Cc5ccccc54)cc(C(F)(F)F)c3)on2)CC1 (some centres unmarked) [Example 195]
EC50 (ZIKV replicon; [3]): 100 to 1000 nM | IC50 [1]: 1000 to 20000 nM

Cc1ncnc(C)c1-c1ccc(C[n+]2cc([N-]C(=O)Nc3ccc(O)c(C(F)(F)F)c3)on2)cc1 [Example 261, (3-(4-(4,6-Dimethylpyrimidin-5-yl)benzyl)-1,2,3-oxadiazol-3-ium-5-yl)((4-hydroxy-3-(trifluoromethyl)phenyl)carbamoyl)amide]
EC50 (ZIKV replicon; [2]): < 100 nM | IC50 [1]: < 100 nM

CN(C)C[C@H]1CC[C@H]([n+]2cc([N-]C(=O)Nc3cc(NC(=O)Cc4cccc(F)c4F)cc(C(F)(F)F)c3)on2)CC1 [Example 169, ((3-(2-(2,3-Difluorophenyl)acetamido)-5-(trifluoromethyl)phenyl)carbamoyl)(3-((1R,4R)-4-((dimethylamino)methyl)cyclohexyl)-1,2,3-oxadiazol-3-ium-5-yl)amide]
EC50 (ZIKV replicon; [3]): 100 to 1000 nM | IC50 [1]: < 100 nM

CNC(=O)[C@@H]1CCC[C@@H]([n+]2cc([N-]C(=O)Nc3cc(NC(=O)Cc4ccccc4C)cc(C(F)(F)F)c3)on2)C1 (racemic) [Example 252, rac-(3-((1R,3R)-3-(Methylcarbamoyl)-cyclohexyl)-1,2,3-oxadiazol-3-ium-5-yl)((3-(2-(o-tolyl)-acetamido)-5-(trifluoromethyl)phenyl)-carbamoyl)amide]
EC50 (ZIKV replicon; [2]): 1000 to 20000 nM | IC50 [1]: 100 to 1000 nM

CN(C)C[C@H]1CC[C@H]([n+]2cc([N-]C(=O)Nc3cc(NC(=O)C(F)(F)CN4CCCC4)cc(C(F)(F)F)c3)on2)CC1 [Example 160, ((3-(2,2-Difluoro-3-(pyrrolidin-1-yl)propanamido)-5-(trifluoromethyl)phenyl)-carbamoyl)(3-((1R,4R)-4-((dimethylamino)-methyl)cyclohexyl)-1,2,3-oxadiazol-3-ium-5-yl)amide]
EC50 (ZIKV replicon; [3]): > 20000 nM | IC50 [1]: 1000 to 20000 nM

Cc1cnn(C)c1-c1ccc(C[n+]2cc([N-]C(=O)Nc3ccc(C#N)c(C(F)(F)F)c3)on2)cc1 [Example 238, ((4-Cyano-3-(trifluoromethyl)phenyl)-carbamoyl)(3-(4-(1,4-dimethyl-1H-pyrazol-5-yl)benzyl)-1,2,3-oxadiazol-3-ium-5-yl)amide]
EC50 (ZIKV replicon; [2]): 1000 to 20000 nM | IC50 [1]: 100 to 1000 nM

Cc1cnn(C2COC2)c1-c1ccc(C[n+]2cc([N-]C(=O)Nc3ccnc(C(F)(F)F)c3)on2)cc1 [Example 239, (3-((4-(4-Methyl-2-(oxetan-3-yl)pyrazol-3-yl]phenyl)methyl)oxadiazol-3-ium-5-yl)-((2-(trifluoromethyl)pyridin-4-yl)carbamoyl)-azanide]
EC50 (ZIKV replicon; [3]): < 100 nM | IC50 [1]: < 100 nM

Cc1ccccc1CC(=O)Nc1cc(NC(=O)[N-]c2c[n+]([C@@H]3CCCC[C@H]3O)no2)cc(C(F)(F)F)c1 [Example 203, (3-((1R,2R)-2-Hydroxycyclohexyl)-1,2,3-oxadiazol-3-ium-5-yl)((3-(2-(o-tolyl)acetamido)-5-(trifluoromethyl)phenyl)carbamoyl)amide]
EC50 (ZIKV replicon; [2]): 100 to 1000 nM | IC50 [1]: 100 to 1000 nM
